Converted amounts (≈) assume the structure as drawn. Where two headings read alike, the source gives them in different places.
Tests used:
Format in all cases: cell-based
Mobiluncus all species = experiment: Agar dilution MIC (CLSI), Mobiluncus all species
M. curtisii = experiment: Agar dilution MIC (CLSI), M. curtisii vaginal isolates; details: for Number of strains with indicated MIC: 14 samples
Mobiluncus spp = experiment: Agar dilution MIC (CLSI), Mobiluncus spp vaginal isolate; details: read-out: Minimal Inhibitory Concentration (MIC)
Prevotella amnii = experiment: Agar dilution MIC (CLSI), Prevotella amnii vaginal isolates; details: for Number of strains with indicated MIC: 33 samples; for MIC: read-out: Minimal Inhibitory Concentration (MIC)
Prevotella bivia = experiment: Agar dilution MIC (CLSI), Prevotella bivia vaginal isolates; details: for MIC: Prevotella bivia, read-out: Minimal Inhibitory Concentration (MIC)

In the case of `CO[C@H]1/C=C/O[C@@]2(C)Oc3c(C)c(O)c4c(O)c(c5c(nc6cc(C)ccn65)c4c3C2=O)NC(=O)/C(C)=C\C=C\[C@H](C)[C@H](O)[C@@H](C)[C@@H](O)[C@@H](C)[C@H](OC(C)=O)[C@@H]1C` [Rifaximin], the “activity on Mobiluncus species” value (Mobiluncus all species) is reported as “had activity”, the MIC50 (Mobiluncus all species; # tested 40) is reported as 0.0075 µg/mL (≈ 0.00954 µM) and the MIC90 (Mobiluncus all species; # tested 40) is reported as 0.015 µg/mL (≈ 0.0191 µM). The “MIC Range” value (Mobiluncus all species; # tested 40) was 0.0075 to 0.03 µg/mL, the Susceptible (Mobiluncus all species; number (%) of isolates, # tested 40) was 40 (100) μg/ml and the “Number of strains with indicated MIC” value (M. curtisii; MIC 0.015 μg/ml) was 12. The “Number of strains with indicated MIC” value (M. curtisii; MIC 0.03 μg/ml) was 2, the MIC (M. curtisii; individual isolates recovered from the vagina 2009-2012, one line per isolate (id in c0/c1 of the row), read-out: Minimal Inhibitory Concentration (MIC)) was 0.015 µg/mL (≈ 0.0191 µM) and the MIC (Mobiluncus spp) was 0.03 µg/mL (≈ 0.0382 µM). The “MIC Range” value (Prevotella amnii; # tested 33) was 0.015 to 0.03 µg/mL, the “Number of strains with indicated MIC” value (Prevotella amnii; MIC 0.015 μg/ml) was 19 and the “Number of strains with indicated MIC” value (Prevotella amnii; MIC 0.03 μg/ml) was 14. The MIC (Prevotella amnii; Prevotella amnii, isolate 601203 4) was 0.015 µg/mL (≈ 0.0191 µM), the MIC (Prevotella amnii; Prevotella amnii, isolate 601256 11) was 0.03 µg/mL (≈ 0.0382 µM) and the MIC (Prevotella amnii; Prevotella amnii, isolate 601258 25) was 0.015 µg/mL (≈ 0.0191 µM). For the same molecule, the MIC (Prevotella amnii; Prevotella amnii, isolate 601261 E) was 0.015 µg/mL (≈ 0.0191 µM), the MIC (Prevotella amnii; Prevotella amnii, isolate 601266 20) was 0.03 µg/mL (≈ 0.0382 µM) and the MIC (Prevotella amnii; Prevotella amnii, isolate 601278 10) was 0.015 µg/mL (≈ 0.0191 µM). The MIC (Prevotella amnii; Prevotella amnii, isolate 601287 HH) was 0.015 µg/mL (≈ 0.0191 µM), the MIC (Prevotella amnii; Prevotella amnii, isolate 601291 41) was 0.015 µg/mL (≈ 0.0191 µM) and the MIC (Prevotella amnii; Prevotella amnii, isolate 601293 29) was 0.03 µg/mL (≈ 0.0382 µM). It also gave an MIC (Prevotella amnii; Prevotella amnii, isolate 601305 A) of 0.03 µg/mL (≈ 0.0382 µM), an MIC (Prevotella amnii; Prevotella amnii, isolate 601311 K) of 0.03 µg/mL (≈ 0.0382 µM) and an MIC (Prevotella amnii; Prevotella amnii, isolate 601314 19) of 0.03 µg/mL (≈ 0.0382 µM). The MIC (Prevotella amnii; Prevotella amnii, isolate 601318 G) was 0.03 µg/mL (≈ 0.0382 µM), the MIC (Prevotella amnii; Prevotella amnii, isolate 601336 33) was 0.015 µg/mL (≈ 0.0191 µM) and the MIC (Prevotella amnii; Prevotella amnii, isolate 601340 37) was 0.015 µg/mL (≈ 0.0191 µM). It also gave an MIC (Prevotella amnii; Prevotella amnii, isolate 601341 H) of 0.015 µg/mL (≈ 0.0191 µM), an MIC (Prevotella amnii; Prevotella amnii, isolate 601350 A) of 0.015 µg/mL (≈ 0.0191 µM) and an MIC (Prevotella amnii; Prevotella amnii, isolate 601365 6) of 0.015 µg/mL (≈ 0.0191 µM). It also gave an MIC (Prevotella amnii; Prevotella amnii, isolate 601368 24) of 0.015 µg/mL (≈ 0.0191 µM), an MIC (Prevotella amnii; Prevotella amnii, isolate 601369 13) of 0.03 µg/mL (≈ 0.0382 µM) and an MIC (Prevotella amnii; Prevotella amnii, isolate 601375 L) of 0.015 µg/mL (≈ 0.0191 µM). The MIC (Prevotella amnii; Prevotella amnii, isolate 601377 9) was 0.03 µg/mL (≈ 0.0382 µM), the MIC (Prevotella amnii; Prevotella amnii, isolate 601379 24) was 0.03 µg/mL (≈ 0.0382 µM) and the MIC (Prevotella amnii; Prevotella amnii, isolate 601388 G) was 0.03 µg/mL (≈ 0.0382 µM). The MIC (Prevotella amnii; Prevotella amnii, isolate 601399 10) was 0.015 µg/mL (≈ 0.0191 µM), the MIC (Prevotella amnii; Prevotella amnii, isolate 601405 A) was 0.015 µg/mL (≈ 0.0191 µM) and the MIC (Prevotella amnii; Prevotella amnii, isolate 601411 L) was 0.03 µg/mL (≈ 0.0382 µM). It also gave an MIC (Prevotella amnii; Prevotella amnii, isolate 601413 10) of 0.015 µg/mL (≈ 0.0191 µM), an MIC (Prevotella amnii; Prevotella amnii, isolate 601418 27) of 0.03 µg/mL (≈ 0.0382 µM) and an MIC (Prevotella amnii; Prevotella amnii, isolate 601426 A) of 0.015 µg/mL (≈ 0.0191 µM). The MIC (Prevotella amnii; Prevotella amnii, isolate 601430 14) was 0.015 µg/mL (≈ 0.0191 µM), the MIC (Prevotella amnii; Prevotella amnii, isolate 601434 13) was 0.015 µg/mL (≈ 0.0191 µM) and the MIC (Prevotella amnii; Prevotella amnii, isolate 601458 13) was 0.03 µg/mL (≈ 0.0382 µM). The MIC50 (Prevotella amnii; Prevotella amnii, # tested 33) was 0.015 µg/mL (≈ 0.0191 µM), the MIC90 (Prevotella amnii; Prevotella amnii, # tested 33) was 0.03 µg/mL (≈ 0.0382 µM) and the “MIC Range” value (Prevotella bivia; # tested 34) was 0.125 to 1 µg/mL. The MIC (Prevotella bivia; isolate 601096 25) was 0.125 µg/mL (≈ 0.159 µM), the MIC (Prevotella bivia; isolate 601166 M) was 0.125 µg/mL (≈ 0.159 µM) and the MIC (Prevotella bivia; isolate 601202 21) was 0.5 µg/mL (≈ 0.636 µM). It also gave an MIC (Prevotella bivia; isolate 601203 5) of 0.125 µg/mL (≈ 0.159 µM), an MIC (Prevotella bivia; isolate 601209 A1) of 0.125 µg/mL (≈ 0.159 µM) and an MIC (Prevotella bivia; isolate 601212 9) of 0.125 µg/mL (≈ 0.159 µM). The MIC (Prevotella bivia; isolate 601213 9A) was 0.25 µg/mL (≈ 0.318 µM), the MIC (Prevotella bivia; isolate 601214 B) was 0.25 µg/mL (≈ 0.318 µM) and the MIC (Prevotella bivia; isolate 601241 13) was 0.125 µg/mL (≈ 0.159 µM). The MIC (Prevotella bivia; isolate 601243 15) was 0.125 µg/mL (≈ 0.159 µM) and the MIC (Prevotella bivia; isolate 601255 10) was 0.25 µg/mL (≈ 0.318 µM).
